{"source": "patent US4816472A", "about": "“Derivatives of 19,20-Bis-nor-prostanoic acid with antiulcer and anorectic activity, process for their preparation and pharmaceutical compositions thereof” (Istituto Biochemico Italiano Giovanni Lorenzini S.p.A., priority 1985, dated 1989)", "key": {"[1]": {"tested_on": "NaOH induced ulcers in the rat", "assay": "Sodium hydroxide induced ulcers in the rat", "format": "in vivo", "method": "(§1) The anitulcer activity of these derivatives was evaluated on ulcers induced by the administration of ethanol, hydrochloric acid and sodium hydroxide in the rat, also on gastric ulcers induced by aspirin in the rat, and on their influence on gastric secretions in the rat.\n(3) Sodium hydroxide induced ulcers in the rat:\nAlso this test is performed in accordance with the method described by A. Robert et al, in Gastroenterology, 77,433 (1979), the disclosure of which is incorporated herein by reference."}, "[2]": {"tested_on": "ethanol induced ulcers in the rat", "assay": "Ethanol induced ulcers in the rat", "format": "in vivo", "method": "as §1\n(1) Ethanol induced ulcers in the rat:\nThe method used is that described by A. Robert et al, in Gastroenterology 77,433 (1979), the disclosure of which is incorporated herein by reference."}, "[3]": {"tested_on": "aspirin-induced ulcers in the rat", "assay": "Aspirin induced gastric ulcers in the rat", "format": "in vivo", "conditions": "200 mg/kg of drug", "method": "as §1\n(4) Aspirin induced gastric ulcers in the rat:\nFor carrying out this test, the method described by H. A. Carmichael, L. M. Nelson, R. I. Russel in Gastroenterology 74, 1229 (1978) is used, the disclosure of which is incorporated herein by reference."}, "[4]": {"tested_on": "gastric secretion in the rat", "assay": "Gastric secretion in the rat", "format": "in vivo, Sprague-Dawley rats", "method": "as §1\n(5) Gastric secretion in the rat:\nSprague-Dawley rats of both sexes are used for this test. The gastric secretion is rated according to the method described by H. Shay et al in Gastroenterology 5,43 (1945) the disclosure of which is incorporated herein by reference."}, "[5]": {"tested_on": "gastric depletion in the rat", "assay": "Gastric depletion in the rat", "format": "in vivo", "method": "Gastric depletion in the rat.\nRats of both sexes and mean weight of 180-200 g are used. The animals are subjected to fasting for 24 hours but have free access to water up to 3 hours prior to the test.\nPreparation of phenyl red solution: 50 mg of phenyl red is mixed with 100 ml of a 1.5% methyl cellulose solution and shaken for 5 hours.\n1.5 ml per rat is administered irrespective of weight.\nThe rats are sacrificed by cervix translocation: the stomach is taken out after ligaturing the cardias and pilorus.\nThe entire stomach and contents are placed in the container of a homogenizer with 50 ml of 0.1N NaOH. They are homogenized for 2 minutes at a maximum velocity. They homogenate is transferred to a test-tube and left to settle for one hour.\n5 ml of the supernatant is taken out and put into a centrifuge tube and mixed with 0.5 ml of 20% (w/v) trichloroacetic acid. The tube is centrifuged at 2500 rpm for 20 min. The entire supernatant is taken and mixed with 4 ml of 0.4N NaOH, and its absorbance is measured at 560λ.\nGastric depletion is calculated according to the following formula:\n(1-sample absorbance/standard absorbance)×100\nAs \"standard absorbance\" is considered the mean value of spectophotometric measurement of 4 animals sacrificed immediately after administering phenyl red."}, "[6]": {"tested_on": "HCl induced ulcers in the rat", "assay": "Hydrochloric acid induced ulcers in the rat", "format": "in vivo", "method": "as §1\n(2) Hydrochloric acid induced ulcers in the rat:\nThe method used for this test is that described by A. Robert et al, in Gastroenterology, 77,433, (1979), the disclosure of which is incorporated herein by reference."}}}
{"smiles": "CCCCCCC1CCC(NC)C1CCCCCCC(=O)O", "note": "(stereo not drawn) [drawing 21]", "values": [{"measurement": "Percent inhibition of NaOH induced ulcers in the rat", "setting": "[1]; 12.5 mg/kg", "value": 81, "unit": "%"}, {"measurement": "Percent inhibition of NaOH induced ulcers in the rat", "setting": "[1]; 25 mg/kg", "value": 87, "unit": "%"}]}
{"smiles": "CCCCCCC1CCC(N)C1CCCCCCC(=O)O", "note": "(stereo not drawn) [drawing 8]", "values": [{"measurement": "Percent inhibition of ethanol induced ulcers in the rat", "setting": "[2]; 2.5 mg/kg", "value": 40, "unit": "%"}, {"measurement": "Percent inhibition of ethanol induced ulcers in the rat", "setting": "[2]; 5 mg/kg", "value": 50, "unit": "%"}, {"measurement": "Percent inhibition of ethanol induced ulcers in the rat", "setting": "[2]; 10 mg/kg", "value": 70, "unit": "%"}, {"measurement": "Percent inhibition of ethanol induced ulcers in the rat", "setting": "[2]; 25 mg/kg", "value": 67, "unit": "%"}, {"measurement": "Percent inhibition of ethanol induced ulcers in the rat", "setting": "[2]; 50 mg/kg", "value": 88, "unit": "%"}]}
{"smiles": "CCCCCCC1CCC(N(C)C)C1CCCCCCC(=O)O", "note": "(stereo not drawn) [drawing 28]", "values": [{"measurement": "Percent inhibition of aspirin-induced ulcers in the rat", "setting": "[3]", "value": 88, "unit": "%"}]}
{"smiles": "CCCCCCC1CCC(NC(C)C)C1CCCCCCC(=O)O", "note": "(stereo not drawn) [drawing 35]", "values": [{"measurement": "Percent inhibition of gastric secretion in the rat", "setting": "[4]; 25 mg/kg, 2 h after treatment", "value": 35, "unit": "%"}, {"measurement": "Percent inhibition of gastric secretion in the rat", "setting": "[4]; 25 mg/kg, 4 h after treatment", "value": 0, "unit": "%"}, {"measurement": "Percent inhibition of gastric secretion in the rat", "setting": "[4]; 50 mg/kg, 2 h after treatment", "value": 56, "unit": "%"}, {"measurement": "Percent inhibition of gastric secretion in the rat", "setting": "[4]; 50 mg/kg, 4 h after treatment", "value": 46, "unit": "%"}, {"measurement": "Percent inhibition of gastric secretion in the rat", "setting": "[4]; 100 mg/kg, 2 h after treatment", "value": 37, "unit": "%"}, {"measurement": "Percent inhibition of gastric secretion in the rat", "setting": "[4]; 100 mg/kg, 4 h after treatment", "value": 54, "unit": "%"}]}
{"smiles": "CCCCCCC1CCC(NC(C)C)C1CCCCCCC(=O)O", "note": "(stereo not drawn) [drawing 11]", "values": [{"measurement": "Percent inhibition of ethanol induced ulcers in the rat", "setting": "[2]; 10 mg/kg", "value": 9, "unit": "%"}, {"measurement": "Percent inhibition of ethanol induced ulcers in the rat", "setting": "[2]; 25 mg/kg", "value": 34, "unit": "%"}, {"measurement": "Percent inhibition of ethanol induced ulcers in the rat", "setting": "[2]; 50 mg/kg", "value": 65, "unit": "%"}]}
{"smiles": "CCCCCCC1CCC(N)C1CCCCCCC(=O)O", "note": "(stereo not drawn) [drawing 20]", "values": [{"measurement": "Percent inhibition of NaOH induced ulcers in the rat", "setting": "[1]; 5 mg/kg", "value": 37, "unit": "%"}, {"measurement": "Percent inhibition of NaOH induced ulcers in the rat", "setting": "[1]; 10 mg/kg", "value": 54, "unit": "%"}, {"measurement": "Percent inhibition of NaOH induced ulcers in the rat", "setting": "[1]; 25 mg/kg", "value": 80, "unit": "%"}]}
{"smiles": "CCCCCCC1CCC(O)C1CCCCCCC(=O)O", "note": "(stereo not drawn) [drawing 31]", "values": [{"measurement": "Percent inhibition of aspirin-induced ulcers in the rat", "setting": "[3]", "value": 64, "unit": "%"}]}
{"smiles": "CCCCCCC1CCC(NC(C)=O)C1CCCCCCC(=O)O", "note": "(stereo not drawn) [drawing 30]", "values": [{"measurement": "Percent inhibition of aspirin-induced ulcers in the rat", "setting": "[3]", "value": 58, "unit": "%"}]}
{"smiles": "CCCCCCC1CCC(NC(C)C)C1CCCCCCC(=O)O", "note": "(stereo not drawn) [drawing 41]", "values": [{"measurement": "inhibition values of gastric depletion", "setting": "[5]; 50 mg/kg", "value": 14, "unit": "%"}]}
{"smiles": "CCCCCCC1CCC(NC)C1CCCCCCC(=O)O", "note": "(stereo not drawn) [drawing 27]", "values": [{"measurement": "Percent inhibition of aspirin-induced ulcers in the rat", "setting": "[3]", "value": 87, "unit": "%"}]}
{"smiles": "CCCCCCC1CCC(N)C1CCCCCCC(=O)O", "note": "(stereo not drawn) [drawing 14]", "values": [{"measurement": "Percent inhibition of HCl induced ulcers in the rat", "setting": "[6]; 50 mg/kg", "value": 68, "unit": "%"}, {"measurement": "Percent inhibition of HCl induced ulcers in the rat", "setting": "[6]; 100 mg/kg", "value": 89, "unit": "%"}, {"measurement": "Percent inhibition of HCl induced ulcers in the rat", "setting": "[6]; 200 mg/kg", "value": 91, "unit": "%"}]}
{"smiles": "CCCCCCC1CCC(N)C1CCCCCCC(=O)O", "note": "(stereo not drawn) [drawing 26]", "values": [{"measurement": "Percent inhibition of aspirin-induced ulcers in the rat", "setting": "[3]", "value": 72, "unit": "%"}]}
{"smiles": "CCCCCCC1CCC(O)C1CCCCCCC(=O)O", "note": "(stereo not drawn) [drawing 37]", "values": [{"measurement": "Percent inhibition of gastric secretion in the rat", "setting": "[4]; 25 mg/kg, 2 h after treatment", "value": 0, "unit": "%"}, {"measurement": "Percent inhibition of gastric secretion in the rat", "setting": "[4]; 25 mg/kg, 4 h after treatment", "value": 15, "unit": "%"}, {"measurement": "Percent inhibition of gastric secretion in the rat", "setting": "[4]; 50 mg/kg, 2 h after treatment", "value": 30, "unit": "%"}, {"measurement": "Percent inhibition of gastric secretion in the rat", "setting": "[4]; 100 mg/kg, 2 h after treatment", "value": 50, "unit": "%"}, {"measurement": "Percent inhibition of gastric secretion in the rat", "setting": "[4]; 100 mg/kg, 4 h after treatment", "value": 45, "unit": "%"}]}
{"smiles": "CCCCCCC1CCC(N)C1CCCCCCC(=O)O", "note": "(stereo not drawn) [drawing 38]", "values": [{"measurement": "inhibition values of gastric depletion", "setting": "[5]; 25 mg/kg", "value": 18, "unit": "%"}, {"measurement": "inhibition values of gastric depletion", "setting": "[5]; 50 mg/kg", "value": 80, "unit": "%"}, {"measurement": "inhibition values of gastric depletion", "setting": "[5]; 100 mg/kg", "value": 80, "unit": "%"}]}
{"smiles": "CCCCCCC1CCC(NC(C)=O)C1CCCCCCC(=O)O", "note": "(stereo not drawn) [drawing 24]", "values": [{"measurement": "Percent inhibition of NaOH induced ulcers in the rat", "setting": "[1]; 12.5 mg/kg", "value": 7, "unit": "%"}, {"measurement": "Percent inhibition of NaOH induced ulcers in the rat", "setting": "[1]; 25 mg/kg", "value": 19, "unit": "%"}, {"measurement": "Percent inhibition of NaOH induced ulcers in the rat", "setting": "[1]; 50 mg/kg", "value": 59, "unit": "%"}]}
{"smiles": "CCCCCCC1CCC(NC(C)=O)C1CCCCCCC(=O)O", "note": "(stereo not drawn) [drawing 12]", "values": [{"measurement": "Percent inhibition of ethanol induced ulcers in the rat", "setting": "[2]; 10 mg/kg", "value": 25, "unit": "%"}, {"measurement": "Percent inhibition of ethanol induced ulcers in the rat", "setting": "[2]; 100 mg/kg", "value": 78, "unit": "%"}]}
{"smiles": "CCCCCCC1CCC(O)C1CCCCCCC(=O)O", "note": "(stereo not drawn) [drawing 25]", "values": [{"measurement": "Percent inhibition of NaOH induced ulcers in the rat", "setting": "[1]; 50 mg/kg", "value": 53, "unit": "%"}, {"measurement": "Percent inhibition of NaOH induced ulcers in the rat", "setting": "[1]; 100 mg/kg", "value": 84, "unit": "%"}, {"measurement": "Percent inhibition of NaOH induced ulcers in the rat", "setting": "[1]; 200 mg/kg", "value": 92, "unit": "%"}]}
{"smiles": "CCCCCCC1CCC(NC(C)C)C1CCCCCCC(=O)O", "note": "(stereo not drawn) [drawing 29]", "values": [{"measurement": "Percent inhibition of aspirin-induced ulcers in the rat", "setting": "[3]", "value": 63, "unit": "%"}]}
